The values below come from patent US12440479B2, “Prevention or treatment of chronic organ injury” (GEORG-AUGUST-UNIVERSITAET GOETTINGEN, STIFTUNG …, priority 2018, dated 2025).

Structures are written as SMILES.

The assay has as its system proximal ALK3 promoter (CACGTG E-box motif). Put plainly: ALK3 ChIP-PCR after Arnt pull-down. The class given is cell-based, mouse. The following applies: TECs upon exposure to FK506. Here is the method: DNA and protein interaction was performed with the OneDay ChIP Kit (Diagenode, Seraing, Belgium) according to the manufacturer's instructions. 2×10^7 MCT cells have been used for each ChIP reaction. Cell lysates were sonicated using an ultrasonic processor S-4000 (Misonix, Farmingdale, USA). Immunoprecipitation was performed with a ChIP grade antibody against Yy1 (ab12132, Abcam Biochemicals, Cambridge, UK) and Arnt (3718, Cell Signaling, Danvers, USA). Enriched DNA was analyzed by qRT-PCR with EpiTect ChIP qPCR primers for genomic Arnt (Qiagen, Hilden, Germany), oligonucleotide sequences for genomic Alk3 are listed in Table 10.

On to `C=CC[C@@H]1/C=C(\C)C[C@H](C)C[C@H](OC)[C@H]2O[C@@](O)(C(=O)C(=O)N3CCCC[C@H]3C(=O)O[C@H](/C(C)=C/[C@@H]3CC[C@@H](O)[C@H](OC)C3)[C@H](C)[C@@H](O)CC1=O)[C@H](C)C[C@@H]2OC` [FK506, tacrolimus], for which the “ARNT binding to CACGTG motif within the proximal ALK3 promoter” value is “significantly increased”.
